The results in this text go back to article doi:10.1101/2020.10.11.335026v1, “Acquisition of a type 3 secretion signal in an housekeeping enzyme shaped glycogen metabolism in Chlamydia” (biorxiv, 2020).

Type in all cases: biochemical
For one assay, the target named is T1, CT815 (HIS-CT815) (Chlamydia trachomatis, UniProt B0B944).
T1 construct: gene glmM; His-tagged, in pET28a, recombinant from E. coli BL21(DE3), Ni-NTA and size exclusion; tag printed as amino-terminal in Results but C-terminal in Methods
T1 sequence (B0B944 whole entry): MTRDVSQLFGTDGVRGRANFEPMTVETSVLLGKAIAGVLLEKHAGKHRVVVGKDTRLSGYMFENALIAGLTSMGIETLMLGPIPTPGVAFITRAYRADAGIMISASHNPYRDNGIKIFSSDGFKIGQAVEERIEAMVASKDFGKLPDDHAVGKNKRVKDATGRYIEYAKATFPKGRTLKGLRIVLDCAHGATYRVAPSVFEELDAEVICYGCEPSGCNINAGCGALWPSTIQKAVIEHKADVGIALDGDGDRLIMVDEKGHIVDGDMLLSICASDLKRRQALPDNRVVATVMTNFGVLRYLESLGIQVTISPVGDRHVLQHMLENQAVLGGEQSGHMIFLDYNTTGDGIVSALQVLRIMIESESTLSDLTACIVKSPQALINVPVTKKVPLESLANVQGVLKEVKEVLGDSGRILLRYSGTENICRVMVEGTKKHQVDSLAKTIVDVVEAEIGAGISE
The assay can be described thus: conversion to Glc6P by HPAEC-PAD. As to conditions: 0.66 mg/ml Glc1P, 0.1 mg/mL enzyme, 0.2 mg/mL Glc1,6diP, 10 mM Tris-HCl pH 8.0, 37 °C, 20 min.

In assay [1] the target is T2, CCA00034 (HIS-CCA00034) (Chlamydia caviae, UniProt Q823R2).
T2 construct: gene CCA_00344; His-tagged, recombinant from E. coli BL21(DE3), Ni-NTA and size exclusion; tag printed as amino-terminal in Results but C-terminal in Methods; tag not reported cut
T2 sequence (Q823R2 entry or part of it): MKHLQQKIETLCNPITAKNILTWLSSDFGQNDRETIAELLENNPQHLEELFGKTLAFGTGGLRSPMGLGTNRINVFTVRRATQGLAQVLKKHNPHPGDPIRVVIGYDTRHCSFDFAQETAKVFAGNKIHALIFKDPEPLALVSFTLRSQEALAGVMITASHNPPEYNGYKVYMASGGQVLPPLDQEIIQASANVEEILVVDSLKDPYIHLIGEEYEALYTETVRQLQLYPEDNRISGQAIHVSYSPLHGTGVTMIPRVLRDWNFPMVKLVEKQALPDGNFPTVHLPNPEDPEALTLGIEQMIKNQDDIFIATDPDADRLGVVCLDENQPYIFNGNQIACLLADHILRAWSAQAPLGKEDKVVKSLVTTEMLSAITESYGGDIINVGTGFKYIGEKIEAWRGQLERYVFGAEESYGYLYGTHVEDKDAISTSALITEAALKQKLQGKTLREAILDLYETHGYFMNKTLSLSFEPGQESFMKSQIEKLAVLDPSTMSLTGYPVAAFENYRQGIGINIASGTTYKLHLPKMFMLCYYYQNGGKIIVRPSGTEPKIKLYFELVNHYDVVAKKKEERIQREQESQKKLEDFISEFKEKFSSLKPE
The assay can be described thus: conversion to Glc6P by HPAEC-PAD. As to conditions: 0.66 mg/ml Glc1P, 0.1 mg/mL enzyme, 0.2 mg/mL Glc1,6diP (not required), 10 mM Tris-HCl pH 8.0, 37 °C, 20 min.

Assay [2] deals with T3, CpsG (HIS-CpsG) (Escherichia coli, UniProt P24175).
T3 construct: gene manB; His-tagged, recombinant from E. coli BL21(DE3), Ni-NTA and size exclusion; tag terminus printed as C-terminal in Methods
T3 sequence (P24175 1-456): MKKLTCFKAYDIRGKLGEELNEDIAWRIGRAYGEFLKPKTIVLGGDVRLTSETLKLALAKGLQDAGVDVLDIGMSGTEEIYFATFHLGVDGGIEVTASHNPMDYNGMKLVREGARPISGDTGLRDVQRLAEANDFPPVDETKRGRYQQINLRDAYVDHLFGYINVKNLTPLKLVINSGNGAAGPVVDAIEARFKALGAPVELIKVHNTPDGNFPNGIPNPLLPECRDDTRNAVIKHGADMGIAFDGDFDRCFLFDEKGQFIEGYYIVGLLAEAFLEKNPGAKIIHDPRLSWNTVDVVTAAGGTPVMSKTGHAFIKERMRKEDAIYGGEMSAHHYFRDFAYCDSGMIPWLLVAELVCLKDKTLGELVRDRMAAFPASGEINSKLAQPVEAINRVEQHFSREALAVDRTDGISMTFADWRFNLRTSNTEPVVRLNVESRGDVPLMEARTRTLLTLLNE
Briefly: conversion to Glc6P by HPAEC-PAD. As to conditions: 0.66 mg/ml Glc1P, 0.1 mg/mL enzyme, 0.2 mg/mL Glc1,6diP, 10 mM Tris-HCl pH 8.0, 37 °C, 20 min.

For assay [3], the target named is T2, CCA00034 (HIS-CCA00034). Briefly: reverse reaction to Glc1P by HPAEC-PAD. As to conditions: 0.33 mg/ml Glc6P, 0.1 mg/mL enzyme, 0.2 mg/mL Glc1,6diP, 10 mM Tris-HCl pH 8.0, 37 °C, 20 min.
For assay [4], the target named is T3, CpsG (HIS-CpsG). The assay can be described thus: Glc1P conversion with and without cofactor by HPAEC-PAD. As to conditions: 0.2 mg/mL Glc1,6diP, 0.66 mg/ml Glc1P, 10 mM Tris-HCl pH 8.0, 37 °C, 20 min.

For `O=P(O)(O)O[C@H]1O[C@H](CO)[C@@H](O)[C@H](O)[C@H]1O` [Glc1P], the “conversion to Glc6P by HPAEC-PAD” value on CT815 (HIS-CT815) was “only low levels of Glc6P were detected in the presence of HIS-CT815”; at CCA00034 (HIS-CCA00034) [1], “Incubation of Glc1P in the presence of HIS-CCA00034 led to its full conversion into Glc6P”; at CpsG (HIS-CpsG) [2] it was “HIS-CpsG required the presence of Glc1,6diP to convert Glc1P into Glc6P”.

For the compound `O=P(O)(O)OC[C@H]1OC(O)[C@H](O)[C@@H](O)[C@@H]1O` (some centres unmarked) [Glc6P], the “reverse reaction to Glc1P by HPAEC-PAD” value on CCA00034 (HIS-CCA00034) [3] is reported as “very low amounts of Glc1P were detected after incubation with HIS-CCA00034 or HIS-CpsG”.

In the case of `O=P(O)(O)OC[C@H]1O[C@H](OP(=O)(O)O)[C@H](O)[C@@H](O)[C@@H]1O` [Glc1,6diP], on CpsG (HIS-CpsG) [4], the “Glc1P conversion with and without cofactor by HPAEC-PAD” value is given as “CpsG required the presence of Glc1,6diP for optimal conversion of Glc1P into Glc6P”.
